How the values were obtained:
[1] = system: fed male obese Zucker rat; assay: The snacking model: consumption of a palatable high fat or low fat meal; format: in vivo
Source text: Rats are habituated to the presence of a palatable high fat meal (Research diets 45% fat D12451) or another palatable low fat meal (Research diets 10% fat D12450B) in their home cage during four hours in the morning two times a week, 9-13a.m. The rats feed ad libitum on rat chow (Altromin #1324, 4% fat) outside the hours of the session and water is present adlibitum. The consumption of the meal is monitored, and as it stabilises, by 7-9 sessions, the animal is ready for use.
The animals are tested two times a week, and the baseline is re-established within 24h. During the experimental session, the compound is administered 30 minutes before the session starts. Food and water intake is monitored at 2 and 4 hours after the meal is presented.

obese Zucker rats = conditions: cited from earlier work
[2] = system: hyperinsulinemic obese individuals; conditions: 8 weeks treatment; cited from earlier work
[3] = biological target: T1, KATP-channels on pancreatic beta-cells (Homo sapiens, UniProt Q09428); conditions: by activation of KATP-channels on pancreatic beta-cells; cited from earlier work
T1 construct: KATP-channels on pancreatic beta-cells; host or cells: pancreatic beta-cells (endogenous)

rats = conditions: cited from earlier work
mice = conditions: intracerebroventricular administration; cited from earlier work
[4] = 30 mg/kg PO admin., 30 minutes before session

T1 sequence (Q09428 whole entry): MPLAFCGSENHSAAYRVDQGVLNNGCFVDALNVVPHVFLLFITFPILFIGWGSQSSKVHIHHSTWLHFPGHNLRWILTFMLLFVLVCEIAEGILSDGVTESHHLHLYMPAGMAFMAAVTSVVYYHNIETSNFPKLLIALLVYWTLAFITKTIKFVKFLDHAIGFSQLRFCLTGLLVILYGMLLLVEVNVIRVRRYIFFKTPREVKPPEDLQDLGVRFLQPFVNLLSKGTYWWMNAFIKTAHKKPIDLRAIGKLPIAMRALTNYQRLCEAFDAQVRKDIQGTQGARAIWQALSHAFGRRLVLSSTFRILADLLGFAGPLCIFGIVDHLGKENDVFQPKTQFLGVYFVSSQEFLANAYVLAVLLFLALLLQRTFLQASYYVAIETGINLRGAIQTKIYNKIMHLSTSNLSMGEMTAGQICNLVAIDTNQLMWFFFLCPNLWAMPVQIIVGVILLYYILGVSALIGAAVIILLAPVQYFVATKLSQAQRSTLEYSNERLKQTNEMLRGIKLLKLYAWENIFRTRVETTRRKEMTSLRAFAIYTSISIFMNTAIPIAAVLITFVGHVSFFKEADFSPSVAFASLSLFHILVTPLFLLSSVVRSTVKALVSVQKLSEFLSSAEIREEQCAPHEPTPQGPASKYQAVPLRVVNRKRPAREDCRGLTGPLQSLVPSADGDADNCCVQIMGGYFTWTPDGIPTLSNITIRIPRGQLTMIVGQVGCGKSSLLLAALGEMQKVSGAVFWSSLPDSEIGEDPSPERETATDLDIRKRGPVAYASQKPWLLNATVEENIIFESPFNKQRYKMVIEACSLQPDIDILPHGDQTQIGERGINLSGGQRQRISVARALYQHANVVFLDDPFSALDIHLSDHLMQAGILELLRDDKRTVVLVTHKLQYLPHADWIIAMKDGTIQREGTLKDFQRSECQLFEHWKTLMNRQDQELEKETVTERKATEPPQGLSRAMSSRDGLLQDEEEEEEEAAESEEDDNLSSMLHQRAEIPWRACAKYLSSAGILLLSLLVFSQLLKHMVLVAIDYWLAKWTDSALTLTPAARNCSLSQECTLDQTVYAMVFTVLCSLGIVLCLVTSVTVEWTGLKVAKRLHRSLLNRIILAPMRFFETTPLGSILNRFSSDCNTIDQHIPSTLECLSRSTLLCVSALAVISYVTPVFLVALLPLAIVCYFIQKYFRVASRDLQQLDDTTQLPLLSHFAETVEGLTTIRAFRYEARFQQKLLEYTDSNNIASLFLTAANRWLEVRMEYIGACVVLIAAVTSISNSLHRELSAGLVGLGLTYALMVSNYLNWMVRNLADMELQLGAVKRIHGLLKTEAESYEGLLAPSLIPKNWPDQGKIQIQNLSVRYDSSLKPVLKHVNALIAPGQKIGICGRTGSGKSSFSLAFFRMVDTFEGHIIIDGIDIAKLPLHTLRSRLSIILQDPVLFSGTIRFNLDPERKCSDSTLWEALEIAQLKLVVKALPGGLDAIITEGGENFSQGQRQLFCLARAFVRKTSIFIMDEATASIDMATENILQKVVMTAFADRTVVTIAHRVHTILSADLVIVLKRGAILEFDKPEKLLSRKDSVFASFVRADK
T1 sequence (Q14654 whole entry partner): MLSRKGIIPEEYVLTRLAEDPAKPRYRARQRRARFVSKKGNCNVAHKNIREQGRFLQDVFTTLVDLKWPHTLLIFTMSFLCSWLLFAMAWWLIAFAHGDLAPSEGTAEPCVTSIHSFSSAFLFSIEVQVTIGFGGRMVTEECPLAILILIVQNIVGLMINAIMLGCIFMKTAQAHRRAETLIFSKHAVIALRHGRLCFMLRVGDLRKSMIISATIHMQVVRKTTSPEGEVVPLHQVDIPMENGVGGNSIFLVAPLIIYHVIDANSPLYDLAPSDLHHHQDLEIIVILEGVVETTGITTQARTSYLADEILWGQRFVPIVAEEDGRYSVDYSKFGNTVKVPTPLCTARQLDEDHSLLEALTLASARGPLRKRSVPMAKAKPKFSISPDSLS

For CC1(NC2=NS(=O)(=O)c3sc(Cl)cc3N2)CC1 [6-Chloro-3-(1-methylcyclopropyl)amino-4H-thieno[3,2-e]-1,2,4-thiadiazine 1,1-dioxide], the “reduced consumption of a high fat meal (45 kcal % fat)” value (“reduced consumption … (45 kcal % fat)” below) ([1]; 5 mg/kg PO admin.) was 44%, the “reduced consumption of a low fat meal (10 kcal % fat)” value (shortened to “reduced consumption … (10 kcal % fat)”) ([1]; 5 mg/kg PO admin.) was 15% and the “reduced consumption … (45 kcal % fat)” value ([1]; 15 mg/kg PO admin.) was 64%. The “reduced consumption … (10 kcal % fat)” value ([1]; 15 mg/kg PO admin.) was 57%, the “reduced consumption … (45 kcal % fat)” value [1, 4] was 86% and the “reduced consumption … (10 kcal % fat)” value [1, 4] was 75%.

With CC(C)NC1=NS(=O)(=O)c2sc(Cl)cc2N1 [6-Chloro-3-isopropylamino-4H-thieno[3,2-e]-1,2,4-thiadiazine 1,1-dioxide] the “reduced consumption … (45 kcal % fat)” value [1, 4] was 77% and the “reduced consumption … (10 kcal % fat)” value [1, 4] was 61%.

For CC1=Nc2ccc(Cl)cc2S(=O)(=O)N1 [Diazoxide, 7-chloro-3-methyl-2H-1,2,4-benzothiadiazine 1,1-dioxide], the “leptin and lipid metabolising enzymes” value (obese Zucker rats; adipose tissue of Zucker rats) is given as “down-regulate leptin and lipid metabolising enzymes”, the glucose tolerance (obese Zucker rats; obese Zucker rats) is given as “improve glucose tolerance” and the insulin receptor binding (obese Zucker rats; obese Zucker rats) is given as “increase insulin receptor binding”. The insulin secretion (obese Zucker rats; obese Zucker rats) was “decrease insulin secretion”, the weight gain (obese Zucker rats; obese Zucker rats) was “decrease weight gain” and the antiobesity effect [2] was “significant antiobesity effect”. The “reduced consumption … (45 kcal % fat)” value [1, 4] was 53%, the “reduced consumption … (10 kcal % fat)” value [1, 4] was 42% and the insulin release [3] was “inhibit insulin release”.

For CC1(C)Oc2ccc(C#N)cc2C(N2CCCC2=O)C1O (stereo not drawn) [cromakalim], the intake of food (rats; intraperitonal administration) is given as “reduces the intake of food” and the intake of food (mice) is given as “increase to intake of food”.

In the case of COc1ccc(Cl)cc1C(=O)NCCc1ccc(S(=O)(=O)NC(=O)NC2CCCCC2)cc1 [glibenclamide], the food intake (rats; central administration) is given as “reduce food intake”.

In the case of CC(N/C(=N\C#N)Nc1ccncc1)C(C)(C)C (stereo not drawn) [pinacidil], the intake of food (mice) is given as “increase to intake of food”.

Reference: patent US20020035106A1, “Use of potassium channel agonists for reducing fat food consumption” (priority 2000, published 2002)
